According to patent US20180228815A1, “NARINGENIN AND ASIATIC ACID COMBINATION TREATMENT OF CANCERS” (The Chinese University of Hong Kong, priority 2016, published 2018):
Like-named read-outs stand apart in the source and are kept apart here.

Assays:
[1] = assay type: in vivo
Protocol: FIG. 1. Determination of a safe dosage of AA or NG in normal mice. Groups of 4 normal mice were treated with different dosages of asiatic acid (AA) or naringenin (NG) for two weeks and various parameters were measured to determine a safe dosage for the use as therapeutic dose in cancer-bearing mice. As indicated by a highlighted box, AA at 10 mg/kg and NG at 50 mg/kg was selected. Each bar represents the mean±SEM for groups of 4 mice. * p<0.05, ** p<0.01 compared to untreated mice (BLK)
A safe dosage of HLPC-purified naringenin (NG) and asiatic acid (AA) was first determined in normal mice by peritoneal injection with different dosages of AA or NG for toxicity assays and a dose of AA at 10 mg/kg body weight and NG at 50 mg//Kg body weight is selected for further examination of the therapeutic efficacy on cancer (FIG. 1). The effects of combined use of a safe dosage of naringenin (NG, 10 mg/kg) and asiatic acid (AA, 50 mg/kg) at a ratio of […] was selected and the therapeutic effect on cancer was tested in two syngeneic mouse models of invasive lung carcinoma (LLC) and melanoma (B16F10). […] Thus, the combination of NG and AA presents as a new emerging and promising therapy for tumor.

B16F10 tumor cells = experiment: TGF-beta1-induced VEGF mRNA expression by tumor cells (real-time PCR); assay type: cell-based
p-Smad3, Smad7 = experiment: Western blot of p-Smad3 and Smad7 in bone marrow-derived NK cells with TGF-β1; assay type: cell-based, mouse; conditions: 10 μM of AA, 100 μM of NG; TGF-β1 (5 ng/ml)
Protocol: FIGS. 14A-14C. […] (FIGS. 14A, 14B) Two-color immunofluorescence detecting NK1.1+ p-Smad3+ and NK1.1+ Smad7+ NK cells in LLC tumor microenvironment. NK1.1+ cells (green), p-Smad3+ or Smad7+ cells (red), DAPI (blue). […] Scale bar, […]. […] To further explore the mechanism of combination therapy facilitating NK cell immunity against cancer in TGF-β rich microenvironment, 10 μM of AA and 100 μM of NG (according to the molar ratio in vivo) were applied on bone marrow-derived NK cells in vitro. […] After euthanasia, bone marrow cells were isolated from C57BL/6 mice following the protocol as previously described (10). Bone marrow cells were then seeded at the density of 1×10^6 cells/ml in MEMα medium (Gibco, Thermo Fisher Scientific Inc., MA, USA) containing 10% FBS supplemented with 1 ng/ml IL-7, 10 ng/ml Flt3L, 30 ng/ml SCF, 50 ng/ml IL-15 (Peprotech, NJ, USA) and […] β-Mercaptoethanol (Gibco, Thermo Fisher Scientific Inc., MA, USA) and cultured for 4 days. Then transferred cells to MEMα medium containing 10% FBS supplemented with 50 ng/ml IL-15, 20 ng/ml IL-2 and […] β-Mercaptoethanol to induce NK cells maturation for another 3 days. Tumor tissues and cultured NK cells were lysed with ice-cold RIPA buffer, and then protein was isolated as previously described (2 6). Membranes were blocked with 5% BSA in PBS for 1 hour at room temperature before incubated with primary antibodies against Smad7, Id2, β-actin (Santa Cruz Biotechnology, Santa Cruz, Calif., USA), p-Smad3 and IRF2 (Cell signaling, MA, USA) overnight at 4° C., subsequently incubated with IRDye 800-conjugated secondary antibodies (Rockland immunochemicals, PA, USA). Target protein expression was then detected by LiCor/Odyssey infrared image system (LI-COR Biosciences, NE, USA) and analyzed with Image J software (NIH, Bethesda, Md., USA).

Id2, IRF2 = experiment: Id2 and IRF2 expression in bone marrow-derived NK cells with TGF-β1 (real-time PCR, western blot); assay type: cell-based, mouse; conditions: bone marrow-derived NK cells in vitro
Protocol: After euthanasia, bone marrow cells were isolated from C57BL/6 mice following the protocol as previously described (10). Bone marrow cells were then seeded at the density of 1×10^6 cells/ml in MEMα medium (Gibco, Thermo Fisher Scientific Inc., MA, USA) containing 10% FBS supplemented with 1 ng/ml IL-7, 10 ng/ml Flt3L, 30 ng/ml SCF, 50 ng/ml IL-15 (Peprotech, NJ, USA) and […] β-Mercaptoethanol (Gibco, Thermo Fisher Scientific Inc., MA, USA) and cultured for 4 days. Then transferred cells to MEMα medium containing 10% FBS supplemented with 50 ng/ml IL-15, 20 ng/ml IL-2 and […] β-Mercaptoethanol to induce NK cells maturation for another 3 days. […] Tumor tissues and cultured NK cells were lysed with ice-cold RIPA buffer, and then protein was isolated as previously described (2 6). Membranes were blocked with 5% BSA in PBS for 1 hour at room temperature before incubated with primary antibodies against Smad7, Id2, β-actin (Santa Cruz Biotechnology, Santa Cruz, Calif., USA), p-Smad3 and IRF2 (Cell signaling, MA, USA) overnight at 4° C., subsequently incubated with IRDye 800-conjugated secondary antibodies (Rockland immunochemicals, PA, USA). Target protein expression was then detected by LiCor/Odyssey infrared image system (LI-COR Biosciences, NE, USA) and analyzed with Image J software (NIH, Bethesda, Md., USA).

B16F10 melanoma = B16F10 melanoma syngeneic mouse tumor model, tumor growth; assay type: in vivo; conditions: for tumor growth at higher dosages: dosages higher than 10 mg/kg AA or 50 mg/kg NG; for B16F10 melanoma volume and weight: monotherapy, different doses; for melanoma progression: single treatment, 10 mg/kg AA or 50 mg/kg NG
From the text: B16F10 melanoma syngeneic tumor model was generated in C57/Bl6 male mice (aged week 8 and 25 g body weight) via subcutaneous injection of 1×10^6 B16F10 cells. Lewis Lung Cancer syngeneic tumor model was also generated in C57/Bl6 male mice via subcutaneous injection of 2×10^6 luciferase-labeled LLC cells. When average tumor size reached 50 mm^3, mice were randomly divided into four groups respectively receiving drug administration as described below. Tumor progression was monitored by calculating tumor volume with vernier calipers as well as by bioluminescence imaging with IVIS Spectrum system (Xenogen, PerkinElmer, Inc., MA, USA). All animal experiments were carried out by a protocol approved by Animal Ethics Experimental Committee at the Chinese University of Hong Kong. Two TCM-based drugs were used in this study, including asiatic acid (95% HLPC-purified, Nanning, China) and naringenin (98% HLPC-purified, Xian, China). Both drugs were dissolved in DMSO and Tween-80 at the ratio of 9:1, which was further diluted 10 times with saline as working solution. […] Studies were carried out by a protocol approved by Animal Ethics Experimental Committee at the Chinese University of Hong Kong.

[2] = test system: bone marrow-derived NK cells; experiment: Flow cytometry of bone marrow-derived NK cell differentiation (NK1.1+ CD122+); assay type: cell-based, mouse; conditions: for inhibitory effect of TGF-β1 on NK cell development (NK1.1+ CD122+): TGF-β1 (5 ng/ml)
Protocol: FIGS. 15A-15B. Combination of AA and NG attenuates TGF-β1 induced inhibition on NK cell differentiation. […] (FIG. 15B) Flow cytometry detects that the effect of AA, NG, and their combination on bone marrow-derived NK differentiation in response to TGF-β1 (5 ng/ml). Each error bar represents the mean±SEM for groups of three independent experiments. *** p<0.001 compared to TGF-β1; ### p<0.001 as indicated.
After euthanasia, bone marrow cells were isolated from C57BL/6 mice following the protocol as previously described (10). Bone marrow cells were then seeded at the density of 1×10^6 cells/ml in MEMα medium (Gibco, Thermo Fisher Scientific Inc., MA, USA) containing 10% FBS supplemented with 1 ng/ml IL-7, 10 ng/ml Flt3L, 30 ng/ml SCF, 50 ng/ml IL-15 (Peprotech, NJ, USA) and […] β-Mercaptoethanol (Gibco, Thermo Fisher Scientific Inc., MA, USA) and cultured for 4 days. Then transferred cells to MEMα medium containing 10% FBS supplemented with 50 ng/ml IL-15, 20 ng/ml IL-2 and […] β-Mercaptoethanol to induce NK cells maturation for another 3 days.
Peripheral blood NK cells and cultured NK cells were analyzed using various markers as previously described (10), including rat anti-mouse CD16/CD32 antibody (BD Pharmingen, BD Biosciences, CA, USA), APC-conjugated anti-mouse NK1.1, PE-conjugated anti-mouse NKp46, PE-conjugated anti-mouse CD122 (eBioscience Inc., CA, USA) and Alexa 488-conjugated anti-mouse/human CD11b Antibody (Biolegend, CA, USA). After immunostaining, cells were resuspended with 200 μl staining buffer and analyzed with BD Accuri™ C6 Cytometer (BD Biosciences, CA, USA).

[3] = Systemic toxicity in B16F10 melanoma-bearing mice; conditions: mouse, in vivo
From the text: FIG. 5. […] Each bar represents the mean±SEM for groups of 6 mice.

NK1.1+ NK cells = experiment: Two-color immunofluorescence of IFN-γ+ and granzyme B+ NK cells in LLC tumor microenvironment; assay type: in vivo, mouse
Protocol: FIGS. 13A-13G. […] NK1.1+ cells (green), IFN-γ+ or granzyme B+ cells (red), DAPI (blue). Each error bar represents the mean±SEM for groups of three to four mice. * p<0.05, ** p<0.01, *** p<0.001 compared to Ctrl; ## p<0.01, ### p<0.001 as indicated. Scale bar, 100 μm. […] (FIGS. 13E, 13F) Effect of AA (10 μmol), NG ([…]), and their combination on levels of IFN-γ and granzyme B in supernatant of cultured splenic NK cells with TGF-β1 (5 ng/ml) detected by ELISA. (FIG. 13G) NK cell cytotoxicity assay with LLC as target cells at E:T ratio of 5:1, 10:1 and 20:1. Each error bar represents the mean±SEM for groups of three independent experiments. * p<0.05, ** p<0.01, *** p<0.001 compared to TGF-β1; # p<0.05, ## p<0.01, ### p<0.001 as indicated. Immunofluorescence staining was performed with 5 μm PLP fixed frozen sections of mouse tumor tissue to detect NK cell infiltration in tumor microenvironment and the protein levels of p-Smad3, Smad7, IFN-γ and granzyme B in these tumor infiltrated NK cells. Primary antibodies used for immunofluorescence staining include Alexa488 conjugated anti-mouse NK-1.1 (Biolegend, CA, USA), PE conjugated anti-mouse NKp46 (eBioscience Inc., CA, USA), anti-p-Smad2/3 (Santa Cruz Biotechnology, Santa Cruz, Calif.), anti-Smad7, anti-interferon gamma and anti-granzyme B (Abcam, MA, USA). All slides were mounted with DAPI containing mounting medium then analyzed with fluorescence microscope (Leica Microsystems, Wetzlar, Germany).

B16F10 melanoma cells = experiment: NK cell cytotoxicity assay (LDH release); assay type: cell-based, mouse; conditions: E:T ratio of 5:1, 10:1 and 20:1
Protocol: It was next assessed whether the combination therapy enhances the tumor-killing capacity of NK cells by co-culturing […] NK cells with B16F10 melanoma cells at ratio of 5:1, 10:1 and 20:1. […] B16F10 melanoma cells were harvested as target cells and bone marrow-derived NK cells treated with AA or NG for 24 hours were harvested as effector cells. Cells were thoroughly washed and seeded in 96-well plates at the effector: target (E:T) ratios of 5:1, 10:1 and 20:1. Incubated in 5% CO2 incubator at 37° C. for 6 hours then detect the LDH release of each well with CytoTox 96® Non-Radioactive Cytotoxicity Assay kit (Promega Corporation, WI, USA). Read absorbance at 490 nm and calculated the percentage of NK cell mediated cytotoxicity with the following formula.

Molecule | safe dosage selected for use as therapeutic dose ([1]; mouse, in vivo, 2 weeks) [mg/kg] | TGF-beta1-induced angiogenesis (VEGF mRNA expression) (B16F10 tumor cells; B16F10 cultured with TGF-beta1 (2 ng/ml), AA at luM) | TGF-β1-increased phosphorylation level of Smad3 (p-Smad3, Smad7) | TGF-β1-induced suppression of Smad7 expression (p-Smad3, Smad7) | TGF-β1-induced suppression of IRF2 (Id2, IRF2) | TGF-β1-induced suppression of Id2 (Id2, IRF2) | tumor growth at higher dosages (B16F10 melanoma) | B16F10 melanoma volume and weight (B16F10 melanoma) | melanoma progression (B16F10 melanoma) | inhibitory effect of TGF-β1 on NK cell development (NK1.1+ CD122+) [2] | systemic toxicity (peripheral white blood cell counts, serum LDH, AST and ALT, creatinine) [3] | IFN-γ-producing NK cells (IFN-γ+ NK1.1+ cells) (NK1.1+ NK cells) | granzyme B-secreting NK cells (GB+ NK1.1+ cells) (NK1.1+ NK cells) | NK cell-mediated cytotoxicity against melanoma cells (B16F10 melanoma cells) | safe dosage selected for use as therapeutic dose ([1]; normal mice treated for two weeks, groups of 4) [mg/kg] | TGF-beta1-induced angiogenesis (VEGF mRNA expression), inhibition by AA with NG added (B16F10 tumor cells; B16F10 with TGF-beta1 (2 ng/ml), NG from 0.5 to 250 uM added to AA at luM) | NK1.1+ CD122+ cell (immature NK cells) proportion ([2]; TGF-β1 at 5 ng/ml, 80% without TGF-β1) [%]
C[C@H]1[C@H](C)CC[C@]2(C(=O)O)CC[C@]3(C)C(=CC[C@@H]4[C@@]5(C)C[C@@H](O)[C@H](O)[C@@](C)(CO)[C@@H]5CC[C@]43C)[C@H]12 [AA, Asiatic acid] | 10 | significantly inhibit | attenuated | capable of restoring | significantly reduced | significantly reduced | no further significant improvement | Dose-dependent inhibitory effect | effectively inhibited | moderately attenuated | do not cause systemic toxicity | significantly increased | significantly increased | increased |  |  | 
O=C1CC(c2ccc(O)cc2)Oc2cc(O)cc(O)c21 (centres unmarked) [NG, 5,7-dihydroxy-2-(4-hydroxyphenyl)chroman-4-one] |  |  | attenuated | capable of restoring | significantly reduced | significantly reduced | no further significant improvement | Dose-dependent inhibitory effect | effectively inhibited | moderately attenuated | do not cause systemic toxicity | significantly increased | significantly increased | increased | 50 | enhanced | 
TGF-β1: cytokine added to NK cell cultures to suppress NK cell development [reference compound] |  |  |  |  |  |  |  |  |  |  |  |  |  |  |  |  | 11
